Test results from patent US11180487B2, “Substituted cyanoindoline derivatives as NIK inhibitors” (Janssen Pharmaceutica NV, priority 2016, dated 2021).
Where two headings read alike, the source gives them in different places.

Key:
[1] = test system: P-IKKα levels in L363 (NIK translocated multiple myeloma) cells; test: Effect of compounds on P-IKKα levels in L363 cells (Mesoscale sandwich immuno-assay), Biological Assay B; type: cell-based, human; settings: 2 hr treatment, averaged values, read-out: Inhibition of pIKKα_L-363 (IC50 (nM))
Description: Effect of Compounds on P-IKKα Levels in L363 (NIK Translocated Multiple Myeloma) Cells
All compounds tested were dissolved in DMSO and further dilutions were made in culture medium. Final DMSO concentration was 1% (v/v) in cell assays. The human L363 cells (ATCC) were cultured in RPMI 1640 medium supplemented with GlutaMax and 10% fetal calf serum (PAA). Cells were routinely maintained at densities of 0.2×10^6 cells per ml-1×10^6 cells per ml at 37° C. in a humidified 5% CO2 atmosphere. Cells were passaged twice a week splitting back to obtain the low density. Cells were seeded in 96 well plates (Nunc 167008) at 2×10^6 per ml media in a volume of 75 μl per well plus 25 μl 1 μg/ml recombinant human B-cell activating factor (BAFF/BLyS/TNFSF13B). Seeded cells were incubated at 37° C. in a humidified 5% CO2 atmosphere for 24 hr. Drugs and/or solvents were added (20 μl) to a final volume of 120 μl. Following 2 hr treatment plates were removed from the incubator and cell lysis was achieved by the addition of 30 μl 5× lysis buffer followed by shaking on a plate shaker at 4° C. for 10 min. At the end of this incubation lysed cells were centrifuged at 800×g for 20 min at 4° C. and the lysate was assessed for P-IKKα levels by sandwich immuno-assay carried out in anti-rabbit antibody coated Mesoscale plates. Within an experiment, the results for each treatment were the mean of 2 replicate wells. For initial screening purposes, compounds were tested using an 8 point dilution curve (serial 1:3 dilutions). For each experiment, controls (containing MG132 and BAFF but no test drug) and a blank incubation (containing MG132 and BAFF and 10 μM ADS125117, a test concentration known to give full inhibition) were run in parallel. The blank incubation value was subtracted from all control and sample values. To determine the IC50 a sigmoidal curve was fitted to the plot of % inhibition of control P-IKKα levels versus Log10 compound concentration.
Note: Compounds 237 and 238 were tested at a maximum top concentration of 823 nM.

[2] = test system: KMS12-BM (NIK WT) multiple myeloma cells; test: Antiproliferative activity on KMS12-BM multiple myeloma cells (CellTiter-Glo, 96 hr), Biological Assay C; type: cell-based, human; settings: averaged values, read-out: KMS-12 Proliferation inhibition (IC50 (nM))
Method in brief: (§1)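 JJN-3 and KMS12-BM cells in RPMI 1640 with 10% FCS were plated at 15000–20000 cells/well and treated 96 h with a 9-point 1:3 dilution series (0.3% DMSO). Viability read by CellTiter-Glo luminescence, blank (time-zero cells) subtracted, expressed as % of untreated control; duplicate wells.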

[3] = test system: JJN-3 (NIK translocated) multiple myeloma cells; test: Antiproliferative activity on JJN-3 multiple myeloma cells (CellTiter-Glo, 96 hr), Biological Assay C; type: cell-based, human; settings: JJN-3 (NIK translocated) cells, averaged values, read-out: JJN-3 Proliferation inhibition (IC50 (nM))
Method in brief: as §1

[4] = molecular target: recombinant human NF-kappaB-inducing kinase (NIK/MAP3K14) (Homo sapiens, UniProt Q99558); test: Inhibition of auto-phosphorylation of recombinant human NIK/MAP3K14 activity (AlphaScreen), Biological Assay A; type: biochemical; settings: averaged values over all measurements on all batches
Chain of recombinant human NF-kappaB-inducing kinase (NIK/MAP3K14) (Q99558 whole entry): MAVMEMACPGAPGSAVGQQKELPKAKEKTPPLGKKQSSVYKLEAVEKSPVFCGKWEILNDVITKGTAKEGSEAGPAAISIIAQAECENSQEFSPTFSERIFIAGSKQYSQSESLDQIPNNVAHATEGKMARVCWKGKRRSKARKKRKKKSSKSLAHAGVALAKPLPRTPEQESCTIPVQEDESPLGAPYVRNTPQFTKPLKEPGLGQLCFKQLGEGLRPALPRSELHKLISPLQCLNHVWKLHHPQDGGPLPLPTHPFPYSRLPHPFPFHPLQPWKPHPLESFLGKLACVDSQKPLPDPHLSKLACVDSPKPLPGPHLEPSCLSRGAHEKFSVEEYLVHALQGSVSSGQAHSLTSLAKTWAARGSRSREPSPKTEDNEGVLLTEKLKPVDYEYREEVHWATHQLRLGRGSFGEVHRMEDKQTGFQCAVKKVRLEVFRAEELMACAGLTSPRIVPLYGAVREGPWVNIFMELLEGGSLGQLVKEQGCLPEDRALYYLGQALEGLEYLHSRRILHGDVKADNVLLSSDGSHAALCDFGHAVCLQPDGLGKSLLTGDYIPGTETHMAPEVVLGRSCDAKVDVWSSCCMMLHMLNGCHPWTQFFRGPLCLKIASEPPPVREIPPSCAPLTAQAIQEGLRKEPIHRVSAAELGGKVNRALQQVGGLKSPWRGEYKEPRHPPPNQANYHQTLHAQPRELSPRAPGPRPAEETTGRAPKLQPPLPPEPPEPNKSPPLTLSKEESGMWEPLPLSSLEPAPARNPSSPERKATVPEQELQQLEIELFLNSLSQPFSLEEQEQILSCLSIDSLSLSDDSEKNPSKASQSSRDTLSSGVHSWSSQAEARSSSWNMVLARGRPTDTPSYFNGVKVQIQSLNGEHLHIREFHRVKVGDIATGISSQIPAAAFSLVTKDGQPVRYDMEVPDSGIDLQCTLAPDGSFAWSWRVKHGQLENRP
Method in brief: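 GST-tagged enzyme (0.2 nM) incubated with compound and 25 μM ATP in 50 mM Tris pH 7.5, 5 mM MgCl2, 1 mM EGTA, 1 mM DTT, 0.1 mM Na3VO4, 1% DMSO, 1 h at 25 °C. Stopped with anti-phospho-IKK Ser176/180 antibody; AlphaScreen bead read, blank-subtracted, IC50 from sigmoidal fit.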

IC50 ([1]; Homo sapiens, L-363, 2 h) [nM]	IC50 ([2]; Homo sapiens, KMS-12-BM, 96 h) [nM]	IC50 ([3]; Homo sapiens, JJN-3, 96 h) [nM]	IC50 [4] [nM]	melting point [°C]	IC50 [1] [nM]	IC50 [2] [nM]	IC50 [3] [nM]	Compound
288	–	–	26.9	194	–	–	–	Cc1ccc(C#N)cc1Nc1nccc(-c2cc(C#N)c3c(c2)[C@@](C)(CF)CN3)n1 [Compound 164]
1620	–	–	30.9	239	–	–	–	Cc1ccc(-c2cncn2C)cc1Nc1nccc(-c2cc(C#N)c3c(c2)[C@@](C)(CO)CN3)n1 [Compound 189]
2630	–	–	34.7	128	–	–	–	Cc1ccc(-c2ccnn2C)cc1Nc1nccc(-c2cc(C#N)c3c(c2)[C@@](C)(CO)CN3)n1 [Compound 190]
4070	–	–	13.8	122	–	–	–	Cc1ccc(-c2ncc[nH]2)cc1Nc1nccc(-c2cc(C#N)c3c(c2)[C@@](C)(CO)CN3)n1.Cl [Compound 191]
~1200	–	–	2.8	220	–	–	–	Cc1c(Nc2nccc(-c3cc(C#N)c4c(c3)[C@@](C)(CO)CN4)n2)cc(C#N)cc1C(=O)O [Compound 201]
3160	–	–	16.2	160	–	–	–	CC(=O)NC[C@@]1(C)CNc2c(C#N)cc(-c3ccnc(Nc4cc(C#N)ccc4C)n3)cc21 [Compound 211]
2.9	> 10000	199	1.5	–	–	–	–	Cc1ccc(CO)cc1Nc1nccc(-c2cc(C#N)c3c(c2)C(C)(CO)CN3)n1 (stereo not drawn) [Compound 215]

Second part, the compound before the results:

Compound	IC50 ([1]; Homo sapiens, L-363, 2 h) [nM]	IC50 ([2]; Homo sapiens, KMS-12-BM, 96 h) [nM]	IC50 ([3]; Homo sapiens, JJN-3, 96 h) [nM]	IC50 [4] [nM]	melting point [°C]	IC50 [1] [nM]	IC50 [2] [nM]	IC50 [3] [nM]
CNC(=O)c1ccc(OC(C)C)c(Nc2nccc(-c3cc(C#N)c4c(c3)[C@@](C)(CO)CN4)n2)c1 [Compound 162]	19.5	> 10000	288	5.5	–	–	–	–
Cc1cc(CCN2CCOCC2)c(C#N)cc1Nc1nccc(-c2cc(C#N)c3c(c2)[C@@](C)(CO)CN3)n1 [Compound 173]	1.3	> 10000	29	1.8	–	–	–	–
CCC(=O)NCC#Cc1cc(C)c(Nc2nccc(-c3cc(C#N)c4c(c3)[C@@](C)(CO)CN4)n2)cc1C#N [Compound 176]	5.9	> 10000	91	3.8	–	–	–	–
C[C@]1(CO)CNc2c(C#N)cc(-c3ccnc(Nc4cc(C#N)ccc4OCCCN)n3)cc21 [Compound 180]	44.7	–	–	3.7	194	–	–	–
CC(=O)NCCCOc1ccc(C#N)cc1Nc1nccc(-c2cc(C#N)c3c(c2)[C@@](C)(CO)CN3)n1 [Compound 181]	7.8	> 10000	195	5.1	–	–	–	–
CC(=O)NCCCCc1ccc(C#N)cc1Nc1nccc(-c2cc(C#N)c3c(c2)[C@@](C)(CO)CN3)n1 [Compound 185]	6.6	–	–	6.5	156	–	–	–
CN1CCC(Oc2ccc(C#N)cc2Nc2nccc(-c3cc(C#N)c4c(c3)[C@@](C)(CO)CN4)n2)C(F)C1 (stereo partly drawn) [Compound 230]	7.7	> 10000	46	6.3	–	–	–	–
CN1CCC(Oc2ccc(C#N)cc2Nc2nccc(-c3cc(C#N)c4c(c3)[C@@](C)(CO)CN4)n2)C(F)C1 (stereo partly drawn) [Compound 231]	–	–	–	7.8	–	12.3	> 10000	89
CN1CC(F)C(Oc2ccc(C#N)cc2Nc2nccc(-c3cc(C#N)c4c(c3)[C@@](C)(CO)CN4)n2)C1 (stereo partly drawn) [Compound 232]	11.5	> 10000	–	5.5	–	–	–	282
CN1CC(F)C(Oc2ccc(C#N)cc2Nc2nccc(-c3cc(C#N)c4c(c3)[C@@](C)(CO)CN4)n2)C1 (stereo partly drawn) [Compound 233]	–	–	–	4.6	–	21.4	> 10000	741
